Results published in patent US20180085460A1, “METHODS OF TREATING PROSTATITIS” (Aquinox Pharmaceuticals (Canada) Inc., priority 2016, published 2018).

What was measured:
Format in all cases: in vivo
[1] = system: carrageenan-induced pelvic pain in male Sprague-Dawley rats; experiment: Previous study: carrageenan-induced pelvic pain, AQX-1125 3, 10 and 30 mg/kg
Text: An animal model of inflammation-induced pelvic pain for inflammatory CP/CPPS was developed and validated using intraprostatic (i.prost.) injection of carrageenan in male Sprague-Dawley rats (adapted from Radhakrishnan, R. and Nallu, R. S., 2009. Development and characterization of a novel animal model of prostate inflammation-induced chronic pelvic pain, Inflammopharmacology, 17: 23-28). This animal model was characterized by both referred mechanical allodynia (decreased mechanical threshold in response to innocuous von Frey forces) and referred mechanical hyperalgesia (increased nociceptive scores in response to noxious von Frey forces) (Augé C. et al., 2012, Nociceptive measures in chronic prostatitis: a model of inflammation-induced pelvic pain in rats, 14th World Congress on Pain (Milan, Italy)).

[2] = system: carrageenan-induced prostatitis model in male Sprague-Dawley rats; experiment: Pelvic pain (von Frey filaments) in carrageenan-induced prostatitis model
Description: Animals were acclimatized to the laboratory conditions for at least 3 days before the start of experiments. Rats were housed in groups of 2 in polysulfone type Sealsafe plus GR900 cages (Tecniplast, Lyon, France) on a bed of wood chips with free access to food and water ad libitum. Species appropriate environmental enrichment was added to the cages. The animal house was maintained under artificial lighting 7:00 a.m. to 7:00 p.m. in a controlled ambient temperature of 22±2° C., and relative humidity maintained at 55±10%.
Mechanical stimulation was performed using von Frey filaments of different forces.
For each day of administration, the stock solution was allowed to equilibrate to room temperature under stirring, for at least 30 min.
Carrageenan was purchased from Sigma-Aldrich. Carrageenan (prepared fresh each day of injection) was dissolved in sterile physiological saline at a final concentration of 30 mg/mL (w/v).
Seven experimental groups of 10 animals were included in this study as described in the table below.
(§1) At D0, D+1, D+3 and D+7 administrations were performed 2 h prior to von Frey testing. […] On the morning of each experimental day, rats were weighed and administrations were performed at a volume of 5 mL/kg.
(§2) Surgical procedures were performed in morning, as follows: anaesthesia was induced by 5% isoflurane and maintained with 2.5% isoflurane for the duration of the procedure. The surgical area (lower abdomen above the penis) and the scrotal skin were shaved. An incision was made in the skin and abdominal wall to expose both ventral lobes of the prostate gland. Carrageenan (30 mg/mL) was injected in both right and left ventral lobes of the prostate (˜12.5 μL per lobe).
Control rats were injected with physiological saline under the same experimental conditions as carrageenan (i.e. i.prost., ˜12.5 μL per lobe).
After i.prost. injection, the wounds in both muscles were closed using absorbable suture and the skin layers were closed using permanent suture.
Pelvic pain was evaluated in a non-blinded manner by applying 6 von Frey filaments of increasing forces (0.16, 0.4, 0.6, 1, 1.4 and 2 g) to the scrotum area, with an interval of 5 seconds between each filament.
Prior to testing, the scrotal skin area designated for mechanical stimulation of each animal was shaved. Animals were placed on a raised wire mesh floor under individual transparent Plexiglas boxes and acclimatized for at least 30 min before starting the von Frey test. Filaments were then applied 1-2 seconds through the mesh floor with enough strength to cause the filament to slightly bend. Each filament was tested 3 times with an interval of 5 seconds between each application.
Nociceptive behavioral scores to von Frey filaments were assessed just before saline or carrageenan injection, in order to obtain basal values (D0), and at defined time points (D+1, D+3 and D+7) after saline or carrageenan injection.
Nociceptive behaviors were scored for each animal and each filament as follows: […]

[3] = system: ventral prostate lobes of carrageenan-injected male Sprague-Dawley rats; experiment: Ventral prostate lobes weight 7 days after carrageenan i.prost. injection; details: AQX-1125 0.3, 1, 3 or 10 mg/kg p.o.; seven days after carrageenan injection
Description: The whole prostate and ventral prostate lobes were weighed using a Scout® Pro balance (OHAUS, Nänikon, Switzerland).
as §1, with “AQX-1125 (0.3, 1, 3 and 10 mg/kg) or saline vehicle were administered orally (p.o.) once a day from D−3 to D+7 for a total of 11 administrations. At” for “At”
as §2
After blood sampling, rats were sacrificed by cervical dislocation and the whole prostates were rapidly collected and weighed. Then both ventral prostate lobes were dissected and weighed together.

[4] = system: carrageenan-induced prostatitis model in male Sprague-Dawley rats; experiment: Pelvic pain (von Frey filaments) in carrageenan-induced prostatitis model; remark: listed apart in the source
[5] = Ibuprofen 300 mg/kg p.o. once at D+3, 1 h prior to testing, p<0.001

Q: For `C=C1CC[C@H]2[C@H](CN)[C@@H]([C@@]3(C)CC[C@H](O)C[C@@H]3CO)CC[C@]12C` [AQX-1125, (1S,3S,4R)-4-((4R,7aS)-4-(aminomethyl)-7a-methyl-1-methyleneoctahydro-1H-inden-5-yl)-3-(hydroxymethyl)-4-methylcyclohexanol], which “anti-nociceptive properties on carrageenan-induced pelvic pain” value ([1]; AQX-1125 3, 10 and 30 mg/kg p.o. once a day during 11 days) is on record?
A: strong anti-nociceptive properties

Q: And the “dose at which maximal effect was reached” value ([1]; doses tested 3, 10 and 30 mg/kg p.o.)?
A: 3 mg/kg

Q: What about the “nociceptive threshold vs vehicle” value ([2]; AQX-1125 10 mg/kg p.o. once a day, D+1 p>0.05, D+3 and D+7 p<0.05) of the same compound?
A: reached the significance level only at day 3 and 7

Q: And the “AUC (0.16-2 g) of nociceptive scores vs vehicle” value ([2]; AQX-1125 10 mg/kg p.o., D+1 p>0.05, D+3 p<0.01, D+7 p<0.05)?
A: a significant effect was observed only at day 3 and 7

Q: And the “nociceptive scores vs vehicle” value ([2]; AQX-1125 0.3, 1, 3 and 10 mg/kg p.o., all tested time-points (D+1, D+3, D+7))?
A: decreases in nociceptive scores were observed

Q: And the “nociceptive threshold vs vehicle” value ([2]; AQX-1125 0.3, 1 and 3 mg/kg p.o. once a day, day 1, 3 and 7 post-carrageenan, p<0.05)?
A: significantly and dose-dependently increased the nociceptive threshold

Q: What about the “AUC (0.16-2 g) of nociceptive scores vs vehicle” value ([2]; AQX-1125 0.3, 1 and 3 mg/kg p.o., all tested time-points, p<0.01) of the same compound?
A: significant decreases in AUC (0.16-2 g) were observed

Q: What about the “significance of effect on nociceptive scores” value ([2]; AQX-1125 all doses, 10 mg/kg at D1 p=0.0638) of the same compound?
A: reached significance, except for the 10 mg/kg dose at D1

Q: And the “anti-nociceptive properties beyond the optimal dose” value ([2]; AQX-1125 beyond 3 mg/kg (10 mg/kg p.o.))?
A: less pronounced anti-nociceptive properties

Q: And the carrageenan-induced pelvic pain ([2]; AQX-1125 daily oral treatments at 0.3, 1 and 3 mg/kg)?
A: significant and dose-related decreases in carrageenan-induced pelvic pain

Q: And the “dose at which maximal effect was reached” value ([2]; AQX-1125 p.o. once a day, doses tested 0.3, 1, 3 and 10 mg/kg)?
A: 3 mg/kg

Q: And the “anti-nociceptive properties on carrageenan-induced pelvic pain” value ([2]; AQX-1125 repeated oral treatments once a day during 11 days at 0.3, 1 and 3 mg/kg)?
A: strong anti-nociceptive properties

Q: What about the “optimal dose for pain management” value ([2]; rat model of carrageenan-induced chronic prostatitis, p.o.) of the same compound?
A: 3 mg/kg

Q: And the “ventral prostate lobes weight as a ratio of whole prostate weight” value [3]?
A: had no effect on ventral prostate lobes weights

Q: What about the “ventral prostate lobes weight expressed in mg” value [3] of the same compound?
A: had no effect on ventral prostate lobes weights

Q: What does the source list for `CC(C)Cc1ccc(C(C)C(=O)O)cc1` (racemic) [Ibuprofen, (RS)-2-(4-(2-methylpropyl)phenyl)propanoic acid]?
A: nociceptive scores vs vehicle [4, 5]: decreases in nociceptive scores; nociceptive threshold vs vehicle [4, 5]: a significant increase in the nociceptive threshold was observed; carrageenan-induced pelvic pain ([4]; Ibuprofen 300 mg/kg, 1 h after oral administration): alleviated carrageenan-induced pelvic pain
